Measurements published in patent US9682994B2, “Inhibitors of retroviral replication” (The Scripps Research Institute, priority 2011, dated 2017).

Tests used:
[1] = system: Tat; test: Tat-flag sub-cellular localization by immunofluorescence; format: cell-based, HIV-1; details: HeLa-CD4 cells transfected with Tat-flag
Experimental: Flag epitope-tagged Tat was recognized with anti-flag and AlexaFluor 568 anti-IgG. Transfections were performed in HeLa-CD4 cells. Magnification 300×.
Flag recognized with anti-flag and AlexaFluor 568 anti-IgG antibodies. Endogenous fibrillarin stained with anti-fibrillarin and FITC-anti-IgG antibodies.
HeLa cells were grown on fibronectin treated coverslips and transfected with the indicated plasmids. Following transfection, cells were treated with DMSO or dCA. Cells were then fixed with 3.7% formaldehyde. After fixation, the cells were permeabilized with 0.1% triton X-100 in PBS with 5% FBS. Primary antibodies (mouse α-FLAG M2 (Sigma), rabbit α-Fibrillarin C13C3 (Cell Signaling), and/or rabbit α-Cyclin T1 H-245 (Santa Cruz)) were added along with the permeabilization solution and incubated at room temperature for 1 hour. The cells were washed with PBS and incubated with 1:500 dilution of Alexa Fluor conjugated secondary antibodies in PBS containing 5% FBS for 1 hour in the dark. […]
Given that dCA interacts with Tat via its basic domain, which is also the nucleolar localization signal (NoLS), it was questioned whether dCA impacts Tat localization. […] The Tat basic mutant was analyzed in parallel, and this protein was completely excluded from the nucleolus both in the presence or absence of dCA.

[2] = system: PBMCs; test: Viability of uninfected PBMCs (MTT, ViViD/Annexin V); format: cell-based, human
Experimental: FIG. 13A: Mitochondrial metabolic activity.
Viability was measured after 24 h and 72 h of culture. PBMCs were stained with FITC-labeled antibody to CD3 (555339), Alexa 700-labeled antibody to CD4 (557922), PerCP-Cy5.5-labeled antibody to CD8 (341051), V450-labeled antibody to CD14 (560349), V450-labeled antibody to CD19 (560353), APC-labeled antibody to AnnexinV (550474) and Live/Dead Aqua blue (L34957). All antibodies were purchased from BD Biosciences except for Live/Dead Aqua blue (Invitrogen). Analyses were performed on a LSRII (BD Bioscience) flow cytometer.

[3] = system: HIV-1 pNL4-3; test: Chronically HIV-1 infected HeLa-CD4 cells, viral RNA by qRT-PCR / p24; format: cell-based
Experimental: FIG. 1G: p24 antigen quantification. Viral supernatants recovered from cells described in FIG. 1B, grown for 60 days, were assayed for their p24 antigen content using a sandwich ELISA kit. Error bars represent standard deviations.
First-strand cDNA from RNA for qPCR was prepared using […]™ first-strand cDNA kit (Invitrogen), following the manufacturer's instructions, using approximately 5 μg of RNA as starting material and random hexamers as first-strand primers. Quantitative PCR was performed with an aliquot of cDNA as template, using […]® 480 SYBR Green I Master (Roche) in a 20 μL reaction according to the manufacturer's instructions. […] The primers used were as follows: […]
Such an early time point rules out de novo infections. […] This conclusion was further supported by the fact that treatment of cells that were chronically infected, and therefore continuously shedding the virus (without incurring new infections, due to down-regulation of CD4 from the cell surface), reduced virus production to undetectable levels (FIG. 1F). […] Results were similar when viral release from cells treated for 60 days were measured by p24 enzyme-linked immunosorbent assay (ELISA) (FIG. 1G).

[4] = system: HIV-1 pNL4-3; test: Acute HIV-1 infection, HeLa-CD4-LTR-LacZ reporter CPRG assay; format: cell-based
Experimental: Forty-eight hours post infection a quantitative chlorophenol red-β-D-galactopyranoside (CPRG) assay was performed.
Twenty-four hours later HIV-1 pNL4-3 was added to the cells of both experiment sets (MOI>>10) in the presence of testing compound or DMSO control. CPRG assay performed 48 h later.
HeLa-CD4 cells were infected with HIV-1 pNL4-3 in the presence of the indicated compounds or DMSO. Forty hours post infection a CPRG assay was performed. […] Error bars represent standard deviation.
P42 cells were plated at 1×10^4 cells per well of 96 well. Twenty-four hours later HIV-1 pNL4-3 was added to the wells in the presence of testing compound or DMSO control in a total volume of […] Forty hours post infection cells were disrupted in lysis buffer (60 mM Na2HPO4, 40 mM NaH2PO4, 10 mM KCl, 10 mM MgSO4, 2.5 mM EDTA, 50 mM β-mercaptoethanol, 0.125% Nonidet P-40) and a quantitative chlorophenol red-β-D-galactopyranoside (CPRG)-based (Boehringer Mannheim) assay was performed. The cell extracts were incubated in a reaction buffer (0.9 M phosphate buffer [pH 7.4], 9 mM MgCl2, 11 mM β-mercaptoethanol, 7 mM CPRG) until a red color developed (from approximately 10 min to 4 h) and measured with an LP400 (Becton Dickinson) plate reader at 572 nm. Experiments were performed in triplicate.
Transcription of the HIV-1 provirus is regulated by both viral and cellular transcription factors. Before Tat is produced, low-level basal transcription from the viral promoter is initiated by cellular factors, such as the nuclear factor-kappa B (NF-kB), Sp1, TATA-binding protein and RNAPII. A desirable Tat inhibitor should block Tat-mediated activation of the viral promoter without affecting its basal transcription, which would result in cellular toxicity, given the shared transcription factors of the HIV promoter and cellular genes.

## CN(C)[C@H]1C[C@@]23CC[C@@]4(O2)C(=CC[C@]2(C)C(c5ccc6ccncc6c5)=CC[C@H]24)C=C3[C@@H](O)[C@@H]1O [dCA, didehydro-Cortistatin A]
[1]
  effect on Tat localization: redistribution of Tat to the periphery of the nucleolus
[2]
  CC50: 100 µM
[3]; chronically infected cells grown in 100 nM for longer periods
  inhibition of viral replication: 99%
[3]; read-out: EC50 for abrogating chronic HIV infection
  EC50: < 0.1 nM
[3]; treatment for 10 or 60 days, read-out: EC50, reduction of viral cellular RNA levels
  EC50: ≥ 0.1 nM
[3]; treatment for 10 or 60 days, read-out: EC90, reduction of viral cellular RNA levels
  EC90: < 10 nM
[4]; acute infection
  maximal inhibition following acute infection: 75-85%
[4]; highest MOI, 48 h post infection, read-out: EC50, inhibition of transcription (β-gal activity)
  EC50: 2.6 nM
[4]; pre-treatment for 24 h prior to infection
  reduction in the EC50 by pre-treatment of cells: 7 fold
[4]; two-day acute infection assay
  reduction of infectivity: 75-80%
